In PMC5964640, “Pharmacological effects of N-[2-[[2-[2-[(2,6-dichlorophenyl)amino]phenyl]acetyl]oxy]ethyl]hyaluronamide (diclofenac Etalhyaluronate, SI-613), a novel sodium hyaluronate derivative chemically linked with diclofenac” (BMC Musculoskeletal Disorders, 2018):
Several values for one entry are separate records, joined by “and”; a condition that tells them apart may be missing. Equal values may be shown once.

Experiments:
[1] = Plasma DF concentrations of rabbits with antigen-induced arthritis; assay type: in vivo, rabbit
Description: Arthritis was induced in the 12 rabbits as described above. Two days after the induction of arthritis, 5 mg/joint SI-613, a mixture of 0.59 mg/joint DF-Na and 5 mg/joint HA (DF-Na + HA), or PBS was administered to the knee joint cavity at a volume of 500 μL/joint. DF-Na was orally administered at a dose of 2 mg/kg. The concentrations of free DF in the synovium and synovial lavage fluid were measured by high performance liquid chromatography coupled with tandem mass spectrometry (LC-MS/MS) at 3 and 72 h after a single IA administration and after a single oral administration of the test materials, respectively. Moreover, plasma concentrations of DF were determined to compare the systemic exposure of DF after the administration of SI-613 with that of the other compounds. The synovium was homogenized in 40-fold volume (40 mL for 1 g tissue) of 10 mM ammonium formate (pH 6.0)/methanol (3:2, v/v) on an ice bath. Then, free DF in the homogenate was extracted with tert-butyl methyl ether-1% acetic acid (6:1, v/v). Free DF in the synovial fluid or plasma was adsorbed to an Oasis HLB cartridge (30 mg/1 cm^3, Waters Corporation, Milford, MA) and eluted with methanol. The internal standard of deuterium-labeled diclofenac (diclofenac-d7) was added to each sample. The extract was loaded onto a CAPCELL PAK C18 MG HPLC column (Shiseido Co. Ltd., Tokyo, Japan, column size: 4.6 mm × 35 mm, particle size: 5 μm) at 40 °C, and eluted with 10 mM ammonium formate (pH 6.0)/methanol (2:3, v/v) at a flow rate of 0.5 mL/minute. For mass detection, we used a QTRAP® 5500 System (AB SCIEX, Framingham, MA) equipped with an electrospray ionization (ESI) source in positive ions in multiple reaction monitoring (MRM) mode. Linear calibration (r > 0.999) was attained at 5–1000 ng/g for the synovium and at 1–200 ng/mL for the synovial fluid and plasma. The extraction efficiencies of diclofenac were 84.2–92.9% for the synovium, 95.2–100.3% for the synovial fluid, and 94.2–96.5% for the plasma.
Time for calculation of area under the DF plasma concentration-time curve (AUC0-t), t (day), was the latest time point at which DF was quantifiable. The half-life (T1/2) was determined by semi-log plotting the data of at least three time points after Tmax.

PGE2 content in the SF = PGE2 content in the SF of rabbits with antigen-induced arthritis; assay type: in vivo, rabbit; details: for production of PGE2 in the SF, group comparison: 72 h after administration
Description: To prepare the anesthetic, saline (2 mL), midazolam (1 mL, 5 mg/mL, Astellas Pharma Inc., Tokyo, Japan), xylazine (2 mL, 0.02 g/mL, Bayer Medical Ltd., Tokyo, Japan), and butorphanol tartrate (1 mL, 5 mg/mL, Meiji Seika Kaisha, Ltd., Tokyo, Japan) were mixed. The anesthetic was administered intravenously to each animal at a volume of 1 mL/body. OVA (Sigma-Aldrich Co., St. Louis, MO) emulsion with Freund's complete adjuvant (FCA; CAPPEL Laboratories Inc., Cochranville, PA) was injected intradermally into the backs of 80 male rabbits at a dose of 5 mg/animal twice at an interval of 13 or 14 days. Twenty-three days after the first immunization, 1% OVA solution was injected in the joint cavities of the left hindlimb at a volume of 500 μL/joint to induce arthritis. […] Animals were sacrificed by exsanguination under 2% isoflurane anesthesia 3 and 72 h after administration, respectively. The SF was collected by washing the joint cavity twice with saline (Otsuka Pharmaceutical Factory, Inc.) containing 20 μg/mL of indomethacin ([…] K. K.) at 3 or 72 h after the administration of the test materials. The PGE2 content in the SF was determined as a mechanism biomarker for the anti-inflammatory effect using a High Sensitivity Prostaglandin E2 Enzyme Immunoassay Kit (Assay Designs Inc.).

[2] = Distribution of DF in knee tissues after a single administration, short-term study (LC-MS/MS); assay type: in vivo, rabbit; details: individual animals, free DF
Description: Two days after the induction of arthritis, 5 mg/joint SI-613, a mixture of 0.59 mg/joint DF-Na and 5 mg/joint HA (DF-Na + HA), or PBS was administered to the knee joint cavity at a volume of 500 μL/joint. DF-Na was orally administered at a dose of 2 mg/kg. The concentrations of free DF in the synovium and synovial lavage fluid were measured by high performance liquid chromatography coupled with tandem mass spectrometry (LC-MS/MS) at 3 and 72 h after a single IA administration and after a single oral administration of the test materials, respectively. Moreover, plasma concentrations of DF were determined to compare the systemic exposure of DF after the administration of SI-613 with that of the other compounds. The synovium was homogenized in 40-fold volume (40 mL for 1 g tissue) of 10 mM ammonium formate (pH 6.0)/methanol (3:2, v/v) on an ice bath. Then, free DF in the homogenate was extracted with tert-butyl methyl ether-1% acetic acid (6:1, v/v). Free DF in the synovial fluid or plasma was adsorbed to an Oasis HLB cartridge (30 mg/1 cm^3, Waters Corporation, Milford, MA) and eluted with methanol. The internal standard of deuterium-labeled diclofenac (diclofenac-d7) was added to each sample. The extract was loaded onto a CAPCELL PAK C18 MG HPLC column (Shiseido Co. Ltd., Tokyo, Japan, column size: 4.6 mm × 35 mm, particle size: 5 μm) at 40 °C, and eluted with 10 mM ammonium formate (pH 6.0)/methanol (2:3, v/v) at a flow rate of 0.5 mL/minute. For mass detection, we used a QTRAP® 5500 System (AB SCIEX, Framingham, MA) equipped with an electrospray ionization (ESI) source in positive ions in multiple reaction monitoring (MRM) mode. Linear calibration (r > 0.999) was attained at 5–1000 ng/g for the synovium and at 1–200 ng/mL for the synovial fluid and plasma.

[3] = test system: antigen-induced arthritic rabbits; assay: Knee joint swelling of antigen-induced arthritic rabbits (long-lasting anti-inflammatory effect); assay type: in vivo, rabbit; details: single IA 5 mg/joint
Description: The duration and efficacy of the anti-inflammatory effect of SI-613 was studied in OVA-induced arthritis rabbits. Two days after the arthritis induction, the knee joint diameter in all 60 rabbits was measured with a digital thickness gauge (Teclock Corp., Nagano, Japan). The joint swelling was expressed as the difference in millimeters between the inflamed (left) and non-inflamed (right) knee joint diameters. The same researcher evaluated the knee joint swelling on all groups on all days. Fifteen animals (knee joint swelling was not more than 7.30 mm) and 5 animals (knee joint swelling was not less than 10.40 mm) were excluded. Forty animals were divided into two groups of 20 animals each by the stratified random sampling method based on the knee joint swelling and body weight of the day, and were administered with 5 mg/joint SI-613 or PBS at a volume of 500 μL/joint into the joint cavities. The knee joint swelling was evaluated the day before (day 0), and on days 1, 3, 7, 14, 21, 28, 35, and 42 after a single injection of the test materials. The knee joint swelling was expressed as the difference in the width of the right and left knee joint.

[4] = DF in knee tissues after a single IA administration of SI-613, long-term study (LC-MS/MS); assay type: in vivo, rabbit; details: single IA 5 mg/joint
Description: Arthritis was induced in the 24 rabbits as described above. Two days after the induction of arthritis in the rabbits, 5 mg/joint SI-613 or PBS was administered at a volume of 500 μL/joint into the knee joint cavity. Concentrations of DF in the synovium and synovial lavage fluid were measured by LC-MS/MS on days 1, 3, 7, 14, 21, 28, 35, and 42 after a single IA administration.

[5] = test system: PGE2 content in the synovial fluid; assay: PGE2 content in the synovial fluid of silver nitrate-induced arthritic rats; assay type: in vivo, rat
Description: In addition, the prostaglandin E2 (PGE2) content, which plays a critical role in inducing inflammation and pain associated with arthritis, was determined in the synovial fluid (SF). Briefly, SI-613 (0.5 mg/joint) or PBS was administered into the joint cavity of the left hindlimb. After assessing the severity of pain, animals were sacrificed by exsanguination under 2% isoflurane anesthesia 1, 2 and 3 days after administration, respectively. The SF was collected by washing the joint cavity with saline (Otsuka Pharmaceutical Factory, Inc.) containing indomethacin (Indacin, MSD K. K., Tokyo, Japan), which was effective to prevent joint puncturing-induced production of PGE2 (unpublished result). The PGE2 content in the SF was measured with a High Sensitivity PGE2 Correlate-EIA kit (Assay Designs Inc., Ann Arbor, MI).

[6] = test system: silver nitrate-induced arthritic rats; assay: Rat model of silver nitrate-induced arthritic pain (pain score, weight-bearing rate); assay type: in vivo
Description: The silver nitrate-induced arthritic pain model is known as a subacute arthritis model, in which the inflammatory response and pain last for at least 3 days following injury. This model involves the activation of prostaglandin pathways and has been used for evaluating the analgesic effects of various NSAIDs or kappa-opioid receptor agonist. Overall, 136 male Sprague-Dawley (SD) rats were obtained from Charles River Laboratories Japan Inc. General anesthesia was maintained by the inhalation of isoflurane (Forane; Dainippon Sumitomo Pharma Co., Ltd., Osaka, Japan). Silver nitrate solution (1%, Wako Pure Chemical Industries, Ltd., Osaka, Japan) at a volume of 50 μL/joint was injected in the knee joint cavity of the left hindlimbs of rats. Animals with no abnormalities were allocated to four groups in each study based on the weight-bearing rate of the inflamed joints and pain score at the time of allocation, by using stratified continuous randomization. Test substances were administered on the day following the arthritis induction. In the first study, SI-613 (contents of DF; 11.8% (w/w), manufactured by Seikagaku Corporation, Tokyo, Japan) at doses of 0.05, 0.15, and 0.5 mg/50 μL/joint (5.9, 17.7, and 59 μg/joint in DF equivalent) or phosphate-buffered saline (PBS) was once injected into the joint cavities of the left hindlimbs for the dose-response assessments.
In the second study, SI-613 (0.5 mg/joint, 59 μg/joint in DF equivalent), HA (0.5 mg/joint, Seikagaku Corporation), a mixture of DF-Na (59 μg/joint, Wako Pure Chemical Industries, Ltd.) and HA (0.5 mg/joint) (DF-Na + HA), or PBS was administered in the same manner for the proof of concept. The doses of DF-Na and HA were set at those of respective components in SI-613 formulation. The DF-Na solution (1 mg/mL) was prepared using the Water for Injection (Otsuka Pharmaceutical Factory, Inc., Tokyo, Japan) and administered orally at a dose of 2 mg/kg (approximately 0.3 mg/body) once daily for 3 days. The oral DF-Na dose, 2 mg/kg, was set in accordance with the dose for adult humans with a body weight of 50 kg, on the assumption that the maximum daily dose in clinical practice administered to patients with OA or rheumatoid arthritis would be 100 mg. It has been reported that DF-Na exerted anti-inflammatory effects in rats when administered at this dose.
Pain was assessed under blinded conditions by scoring pain-related behaviors based on the following criteria and measuring the weight-bearing rates of hindlimbs with a load-measuring device (Tokken Inc., Chiba, Japan) at a same time each day for 3 days after the injection of the test materials.
The criteria for assigning pain scores were as follows: 0; normal, 1; mild claudication with lifting the foot, 2; severe claudication with completely closing the toe, 3; walking on three legs. The weight-bearing rate was calculated using the following formula:
Weight-bearing rate (%) = Mean weight-bearing load on inflamed leg (g) / Body weight (g) × 100.

[7] = sampling point 72 h, oral 2 mg/kg or single IA
[8] = sampling point 72 h, oral 2 mg/kg or single IA, 2 mg/kg
[9] = second study, single IA 0.5 mg/joint, compared with PBS, HA, DF-Na + HA or repeated oral DF-Na

Which results are given for `O=C(O)Cc1ccccc1Nc1c(Cl)cccc1Cl` [DF-Na, diclofenac sodium]?
AUC(0-inf) ([1]; rabbit, plasma, po, 2 mg/kg, mean ± SD, read-out: AUC0-∞ of DF in plasma): 4130 ng·h/mL; half-life ([1]; rabbit, plasma, po, 2 mg/kg, mean ± SD, read-out: t1/2 of DF in plasma (converted)): 12.8 h; Tmax ([1]; rabbit, plasma, po, 2 mg/kg, same groups, mean ± SD): 2.4 ± 3.2 h; AUC(0-t) ([1]; rabbit, plasma, po, 2 mg/kg, t = latest time point at which DF was quantifiable, mean ± SD, read-out: AUC0-t of DF in plasma): 4690 ± 1900 ng·h/mL; Cmax ([1]; rabbit, plasma, DF-Na oral 2 mg/kg, mixture DF-Na 0.59 mg + HA 5 mg/joint IA, SI-613 5 mg/joint IA, mean ± SD): 621 ± 372 ng/mL; mean PGE2 content in the SF (PGE2 content in the SF; 3 h after administration, DF-Na oral 2 mg/kg): 3767 pg/joint; production of PGE2 in the SF compared with the control group (PGE2 content in the SF; 3 h after administration, oral 2 mg/kg): significantly suppressed; production of PGE2 in the SF, group comparison (PGE2 content in the SF): No significant differences; Concentration of DF Synovial lavage fluid ([2]; sampling point 3 h): 124.6 ng/mL fluid and 58.23 ng/mL fluid and 45.66 ng/mL fluid; Concentration of DF Synovium ([2]; sampling point 3 h): 155.8 ng/g tissue and 52.88 ng/g tissue and 75.83 ng/g tissue; Concentration of DF Synovial lavage fluid [2, 7]: BLQ2 (< 1 ng of DF per mL of synovial lavage fluid); Concentration of DF Synovium [2, 7]: BLQ1 (below limit of quantification, < 5 ng/g)

With “N-[2-[[2-[2-[(2,6-dichlorophenyl)amino]phenyl]acetyl]oxy]ethyl]hyaluronamide [SI-613]” as the molecule, how does the “knee joint swelling compared with the control” value ([3]; day 1 until day 28) read?
The value was “significantly decreased”.

And the “knee joint swelling compared with the control” value ([3]; day 35 and day 42)?
The value was “no significant difference”.

And the “plasma AUC0-t of DF, times smaller than DF-Na + HA group (IA)” value ([1]; SI-613 IA vs DF-Na + HA IA)?
Its value is 16 times.

What about the “plasma Cmax of DF, times lower than DF-Na + HA group (IA)” value ([1]; SI-613 IA vs DF-Na + HA IA) of the same molecule?
Its value is 94 times.

What about the “plasma AUC0-t of DF, times smaller than DF-Na group (oral)” value ([1]; SI-613 IA vs DF-Na oral) of the same molecule?
The value was 187 times.

And the “plasma Cmax of DF, times lower than DF-Na group (oral)” value ([1]; SI-613 IA vs DF-Na oral)?
The value was 462 times.

And the “mean amount of DF in the joint cavity lavage fluid” value ([4]; day 21)?
Its value is 5.940 ng/joint.

And the “DF in the joint cavity lavage fluid” value ([4]; day 28)?
Its value is < 1 ng of DF per mL of synovial lavage fluid.

And the “mean DF concentration in the synovium” value ([4]; day 28)?
The value was 9.754 ng/g.

And the “PGE2 content in the SF vs control” value ([5]; IA 0.5 mg/joint, days 1, 2 and 3)?
The value was “lower PGE2 content than the control group”.

What about the “PGE2-inhibitory effect, statistical significance vs control” value ([5]; rat model, 72 h after administration) of the same molecule?
The value was “no statistically significant difference”.

And the “production of PGE2 in the SF, group comparison” value (PGE2 content in the SF)?
Its value is “significantly suppressed”.

What about the “Concentration of DF Synovial lavage fluid” value [2, 8] of the same molecule?
Its value is 60.64 ng/mL fluid and 38.82 ng/mL fluid and 1540 ng/mL fluid.

And the “Concentration of DF Synovium” value [2, 8]?
The value was 15.23 ng/g tissue and 45.47 ng/g tissue and 351.1 ng/g tissue.

What about the “analgesic effect (pain score)” value ([6]; PGE2 study, IA 0.5 mg/joint, days 1, 2 and 3) of the same molecule?
Its value is “confirmed each day”.

And the pain behavioral score ([6]; first study, single IA 0.05, 0.15 and 0.5 mg/joint, vs control (PBS), mean of 3 days)?
The pain behavioral score was “improved the pain behavioral scores significantly”.

What about the weight-bearing rate ([6]; first study, single IA 0.15 and 0.5 mg/joint, vs control, mean of 3 days) of the same molecule?
The weight-bearing rate was “significantly increased the weight-bearing rates”.

And the pain behavioral score [6, 9]?
The pain behavioral score was “significantly improved the pain behavioral score”.

What about the weight-bearing rate [6, 9] of the same molecule?
The weight-bearing rate was “increased the weight-bearing rate”.
